According to US9975878B2, “Substituted triazine BMI-1 inhibitors” (PTC Therapeutics, Inc., priority 2013, dated 2018):

test system: Bmi-1 protein; experiment: Sandwich ELISA Assay: Bmi-1 protein level in HT-1080 cells treated with test compounds; format: cell-based
Procedure, shortened: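 HT-1080 cells exposed to compounds (final DMSO 0.5%) for 40-48 h at 37° C, 5% CO2, then lysed. Bmi-1 quantified by sandwich ELISA (mouse anti-Bmi-1 capture, rabbit anti-Bmi-1 detection, HRP anti-rabbit, TMB), read at OD450 with OD570 reference, against recombinant GST-Bmi-1 standard curve (0-8000 pg/mL).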

| Structure (SMILES) | EC50 [nM] |
| --- | --- |
| CSc1nc2ccccc2n1-c1nc(N)nc(Nc2ccc(OC(F)F)cc2)n1 [Cpd 121, N-[4-(difluoromethoxy)phenyl]-6-[2-(methylsulfanyl)-1H-benzimidazol-1-yl]-1,3,5-triazine-2,4-diamine] | 100 to 3000 |
| N#CCc1nc2ccccc2n1-c1nc(N)nc(Nc2ccc(OC(F)F)c(F)c2)n1 [Cpd 122, [1-(4-amino-6-{[4-(difluoromethoxy)-3-fluorophenyl]amino}-1,3,5-triazin-2-yl)-1H-benzimidazol-2-yl]acetonitrile] | 100 to 3000 |
| Cc1nn2ccccc2c1-c1nc(N)nc(Nc2ccc(OC(F)F)cc2)n1 [Cpd 123, N-[4-(difluoromethoxy)phenyl]-6-(2-methylpyrazolo[1,5-a]pyridin-3-yl)-1,3,5-triazine-2,4-diamine] | 100 to 3000 |
| CCCc1nc2ccccc2n1-c1nc(N)nc(Nc2ccc(C(F)(F)F)cc2)n1 [Cpd 127, 6-(2-propyl-1H-benzimidazol-1-yl)-N-[4-(trifluoromethyl)phenyl]-1,3,5-triazine-2,4-diamine] | 100 to 3000 |
| CCc1nn2ccccc2c1-c1nc(N)nc(Nc2ccc(C(F)(F)F)cc2)n1 [Cpd 128, 6-(2-ethylpyrazolo[1,5-a]pyridin-3-yl)-N-[4-(trifluoromethyl)phenyl]-1,3,5-triazine-2,4-diamine] | 100 to 3000 |
| CCc1nn2ccccc2c1-c1nc(N)nc(Nc2ccc(OC(F)F)cc2)n1 [Cpd 129, N-[4-(difluoromethoxy)phenyl]-6-(2-ethylpyrazolo[1,5-a]pyridin-3-yl)-1,3,5-triazine-2,4-diamine] | 100 to 3000 |
| Cc1nc2ccccc2n1-c1nc(N)nc(Nc2ccc(N3CCOCC3)cc2)n1 [Cpd 135, 6-(2-methyl-1H-benzimidazol-1-yl)-N-[4-(morpholin-4-yl)phenyl]-1,3,5-triazine-2,4-diamine] | 100 to 3000 |
| Fc1ccc2nc(C3CC3)n(-c3cnnc(Nc4ccc(OC(F)F)cc4)n3)c2c1 [Cpd 138, 5-(2-cyclopropyl-6-fluoro-1H-benzimidazol-1-yl)-N-[4-(difluoromethoxy)phenyl]-1,2,4-triazin-3-amine] | 100 to 3000 |
| CCc1nc2ccccc2n1-c1nc(Nc2ccc(C(F)(F)F)cc2)c[n+]([O-])n1 [Cpd 139, 3-(2-ethyl-1H-benzimidazol-1-yl)-N-[4-(trifluoromethyl)phenyl]-1,2,4-triazin-5-amine 1-oxide] | 10 to 100 |
| CCc1nc2ccccc2n1-c1nc(Nc2ccc(OC(F)F)cc2)c[n+]([O-])n1 [Cpd 140, N-[4-(difluoromethoxy)phenyl]-3-(2-ethyl-1H-benzimidazol-1-yl)-1,2,4-triazin-5-amine 1-oxide] | 100 to 3000 |
| [O-][n+]1cc(Nc2ccc(C(F)(F)F)cc2)nc(-n2c(C3CC3)nc3ccccc32)n1 [Cpd 141, 3-(2-cyclopropyl-1H-benzimidazol-1-yl)-N-[4-(trifluoromethyl)phenyl]-1,2,4-triazin-5-amine 1-oxide] | 10 to 100 |
| CCc1nc2ccccc2n1-c1nnc(N)c(Nc2ccc(C(F)(F)F)cc2)n1 [Cpd 142, 3-(2-ethyl-1H-benzimidazol-1-yl)-N^5-[4-(trifluoromethyl)phenyl]-1,2,4-triazine-5,6-diamine] | 100 to 3000 |
| Cc1nc2ccccc2n1-c1nnc(N)c(Nc2ccc(C(F)(F)F)cc2)n1 [Cpd 143, 3-(2-methyl-1H-benzimidazol-1-yl)-N^5-[4-(trifluoromethyl)phenyl]-1,2,4-triazine-5,6-diamine] | 100 to 3000 |
| COc1ccc(Nc2cnnc(-n3c(C)nc4ccccc43)n2)cc1 [Cpd 144, N-(4-methoxyphenyl)-3-(2-methyl-1H-benzimidazol-1-yl)-1,2,4-triazin-5-amine] | 1 to 10 |
| CCc1nc2ccccc2n1-c1nncc(Nc2ccc(OC)cc2)n1 [Cpd 145, 3-(2-ethyl-1H-benzimidazol-1-yl)-N-(4-methoxyphenyl)-1,2,4-triazin-5-amine] | 1 to 10 |
| COc1ccc(Nc2cnnc(-n3c(C4CC4)nc4ccccc43)n2)cc1 [Cpd 146, 3-(2-cyclopropyl-1H-benzimidazol-1-yl)-N-(4-methoxyphenyl)-1,2,4-triazin-5-amine] | 1 to 10 |
| COc1ccc(Nc2nc(N)nc(-n3c(C)nc4ccccc43)n2)cc1 [Cpd 147, N-(4-methoxyphenyl)-6-(2-methyl-1H-benzimidazol-1-yl)-1,3,5-triazine-2,4-diamine] | 1 to 10 |
| Cc1ccc(Nc2nc(N)nc(-n3c(C)nc4ccccc43)n2)cc1 [Cpd 148, 6-(2-methyl-1H-benzimidazol-1-yl)-N-(4-methylphenyl)-1,3,5-triazine-2,4-diamine] | 1 to 10 |
| Cc1cccc(Nc2nc(N)nc(-n3c(C)nc4ccccc43)n2)c1 [Cpd 149, 6-(2-methyl-1H-benzimidazol-1-yl)-N-(3-methylphenyl)-1,3,5-triazine-2,4-diamine] | 100 to 3000 |

Next, values leading:

| EC50 [nM] | Structure (SMILES) |
| --- | --- |
| 100 to 3000 | CCc1nc2ccccc2n1-c1cnnc(Nc2ccc(C(F)(F)F)cc2)n1 [Cpd 124, 5-(2-ethyl-1H-benzimidazol-1-yl)-N-[4-(trifluoromethyl)phenyl]-1,2,4-triazin-3-amine] |
| 100 to 3000 | CCc1nc2ccc(F)cc2n1-c1cnnc(Nc2ccc(C(F)(F)F)cc2)n1 [Cpd 125, 5-(2-ethyl-6-fluoro-1H-benzimidazol-1-yl)-N-[4-(trifluoromethyl)phenyl]-1,2,4-triazin-3-amine] |
| 100 to 3000 | Cc1nc2ccc(F)cc2n1-c1cnnc(Nc2ccc(C(F)(F)F)cc2)n1 [Cpd 126, 5-(6-fluoro-2-methyl-1H-benzimidazol-1-yl)-N-[4-(trifluoromethyl)phenyl]-1,2,4-triazin-3-amine] |
| 100 to 3000 | Cc1nc2ccc(F)cc2n1-c1nncc(Nc2ccc(C(F)(F)F)cc2)n1 [Cpd 130, 3-(6-fluoro-2-methyl-1H-benzimidazol-1-yl)-N-[4-(trifluoromethyl)phenyl]-1,2,4-triazin-5-amine] |
| 100 to 3000 | CCc1nc2ccc(F)cc2n1-c1nncc(Nc2ccc(C(F)(F)F)cc2)n1 [Cpd 131, 3-(2-ethyl-6-fluoro-1H-benzimidazol-1-yl)-N-[4-(trifluoromethyl)phenyl]-1,2,4-triazin-5-amine] |
| 10 to 100 | Fc1ccc2nc(C3CC3)n(-c3nncc(Nc4ccc(C(F)(F)F)cc4)n3)c2c1 [Cpd 132, 3-(2-cyclopropyl-6-fluoro-1H-benzimidazol-1-yl)-N-[4-(trifluoromethyl)phenyl]-1,2,4-triazin-5-amine] |
| 10 to 100 | FC(F)(F)c1ccc(Nc2nncc(-n3c(C4CC4)nc4ccccc43)n2)cc1 [Cpd 133, 5-(2-cyclopropyl-1H-benzimidazol-1-yl)-N-[4-(trifluoromethyl)phenyl]-1,2,4-triazin-3-amine] |
| 100 to 3000 | Fc1ccc2nc(C3CC3)n(-c3cnnc(Nc4ccc(C(F)(F)F)cc4)n3)c2c1 [Cpd 134, 5-(2-cyclopropyl-6-fluoro-1H-benzimidazol-1-yl)-N-[4-(trifluoromethyl)phenyl]-1,2,4-triazin-3-amine] |
| 10 to 100 | Cc1nc2ccc(F)cc2n1-c1cnnc(Nc2ccc(OC(F)F)cc2)n1 [Cpd 136, N-[4-(difluoromethoxy)phenyl]-5-(6-fluoro-2-methyl-1H-benzimidazol-1-yl)-1,2,4-triazin-3-amine] |
| 100 to 3000 | CCc1nc2ccc(F)cc2n1-c1cnnc(Nc2ccc(OC(F)F)cc2)n1 [Cpd 137, N-[4-(difluoromethoxy)phenyl]-5-(2-ethyl-6-fluoro-1H-benzimidazol-1-yl)-1,2,4-triazin-3-amine] |
